In patent publication US4360511A, “Amines useful as brain imaging agents” (Medi-Physics, Inc., priority 1980, dated 1982):
Like-named read-outs stand apart in the source and are kept apart here.

Columns and labels:
[1] = Friedman et al, July 1978; cited from earlier work
[2] = Bioassay: distribution of I-123-labeled compounds in organs of rats after tail vein injection (percent dose/gram, brain/blood ratio); type: in vivo, Female Sprague-Dawley rats; conditions: for tissue uptake at 1 h / tissue uptake at 5 min: rat, iv, 0.05 to 1.0 mCi, two rats; for tissue uptake at 1 h / Brain/Blood Ratio 60 min.: 60 minutes post-injection; for Brain/Blood Ratio 5 min. / tissue uptake at 5 min: 5 minutes post-injection
Procedure: Female Sprague-Dawley rats weighing approximately 150 g were anesthetized with sodium pentobarbital and were injected in a tail vein with from 0.05 to 1.0 mCi (in a volume of 0.2 to 0.5 ml) of the I-123-labeled compound. Two specimens were utilized for each test.
Two animals each were sacrificed at 5 minutes and 60 minutes post-injection, the tails discarded and the amount of activity in various organs determined. Each organ was counted at a standardized geometry with a sodium iodide crystal scintillation counter adjusted for the 159 keV emission of I-123. The organs were also weighed to one thousandth of a gram and the activity calculated as a percent of administered dose per gram of organ weight.
The ratio of brain-to-blood activity was calculated as a percent of administered dose per gram.

[3] = Robinson et al, J Nucl Med 17, p 1093 (1976); cited from earlier work
[4] = blood, read-out: Percent Dose/Gram Blood 60 min.
[5] = brain, read-out: Percent Dose/Gram Brain 60 min.
[6] = heart, read-out: Percent Dose/Gram Heart 60 min.
[7] = blood, read-out: Percent Dose/Gram Blood 5 min.
[8] = brain, read-out: Percent Dose/Gram Brain 5 min.
[9] = heart, read-out: Percent Dose/Gram Heart 5 min.

Which “activity carried across the blood/brain barrier” value [1] does the source give for 5-hydroxytryptophan here?
The value was “carried some activity across the blood/brain barrier”.

What about the decarboxylation in vivo [1] of the same molecule?
Its decarboxylation in vivo is “decarboxylated in vivo”.

With `Cc1c([123I])c(=O)n(-c2ccccc2)n1C` [I--123-iodoantipyrine, I-123 labeled 4-iodoantipyrine, reference compound] as the molecule, how does the tissue uptake at 1 h [2, 4] read?
Its tissue uptake at 1 h is 0.94 %ID/g.

And the tissue uptake at 1 h [2, 5]?
The tissue uptake at 1 h was 0.17 %ID/g.

And the tissue uptake at 1 h [2, 6]?
Its tissue uptake at 1 h is 0.53 %ID/g.

What about the “concentration in the brain” value [3] of the same molecule?
The value was “suboptimal concentration in the brain”.

And the in vivo deiodination [3]?
Its in vivo deiodination is “rapid in vivo deiodination”.

Which “Brain/Blood Ratio 5 min.” value [2] does the source give for `CCNCc1ccccc1[123I]` [I--123-N--ethyl-o-iodobenzylamine] here?
The value was 4.22.

And the “Brain/Blood Ratio 60 min.” value [2]?
The value was 1.31.

And the tissue uptake at 5 min [2, 7]?
Its tissue uptake at 5 min is 0.25 %ID/g.

And the tissue uptake at 1 h [2, 4]?
The tissue uptake at 1 h was 0.34 %ID/g.

And the tissue uptake at 5 min [2, 8]?
The tissue uptake at 5 min was 1.06 %ID/g.

What about the tissue uptake at 1 h [2, 5] of the same molecule?
Its tissue uptake at 1 h is 0.44 %ID/g.

What about the tissue uptake at 5 min [2, 9] of the same molecule?
The tissue uptake at 5 min was 0.79 %ID/g.

And the tissue uptake at 1 h [2, 6]?
The tissue uptake at 1 h was 0.44 %ID/g.

Which “Brain/Blood Ratio 5 min.” value [2] does the source give for `CC(C)NCCc1ccccc1[123I]` [I--123-N--isopropyl-o-iodo-β-phenethylamine] here?
Its value is 8.58.

What about the “Brain/Blood Ratio 60 min.” value [2] of the same molecule?
The value was 5.83.

And the tissue uptake at 5 min [2, 7]?
Its tissue uptake at 5 min is 0.12 %ID/g.

What about the tissue uptake at 1 h [2, 4] of the same molecule?
Its tissue uptake at 1 h is 0.12 %ID/g.

And the tissue uptake at 5 min [2, 8]?
The tissue uptake at 5 min was 1.03 %ID/g.

And the tissue uptake at 1 h [2, 5]?
The tissue uptake at 1 h was 0.67 %ID/g.

And the tissue uptake at 5 min [2, 9]?
Its tissue uptake at 5 min is 0.88 %ID/g.

What about the tissue uptake at 1 h [2, 6] of the same molecule?
The tissue uptake at 1 h was 0.27 %ID/g.

Which “Brain/Blood Ratio 5 min.” value [2] does the source give for `[123I]c1ccccc1CCNCCc1ccccc1` [I--123-N--β-phenethyl-o-iodo-β-phenethylamine] here?
Its value is 4.77.

And the “Brain/Blood Ratio 60 min.” value [2]?
The value was 5.17.

What about the tissue uptake at 5 min [2, 7] of the same molecule?
Its tissue uptake at 5 min is 0.16 %ID/g.

What about the tissue uptake at 1 h [2, 4] of the same molecule?
Its tissue uptake at 1 h is 0.09 %ID/g.

And the tissue uptake at 5 min [2, 8]?
The tissue uptake at 5 min was 0.74 %ID/g.

What about the tissue uptake at 1 h [2, 5] of the same molecule?
Its tissue uptake at 1 h is 0.48 %ID/g.

And the tissue uptake at 5 min [2, 9]?
Its tissue uptake at 5 min is 1.56 %ID/g.

What about the tissue uptake at 1 h [2, 6] of the same molecule?
Its tissue uptake at 1 h is 0.26 %ID/g.

Which results are given for `[123I]c1ccccc1CN1CCCCC1` [I--123-N--o-iodobenzylpiperidine]?
Brain/Blood Ratio 5 min. [2]: 1.56; Brain/Blood Ratio 60 min. [2]: 0.91; tissue uptake at 5 min [2, 7]: 0.6 %ID/g; tissue uptake at 1 h [2, 4]: 0.32 %ID/g; tissue uptake at 5 min [2, 8]: 0.93 %ID/g; tissue uptake at 1 h [2, 5]: 0.29 %ID/g; tissue uptake at 5 min [2, 9]: 0.56 %ID/g; tissue uptake at 1 h [2, 6]: 0.38 %ID/g

With `CC(C)N[C@@H](C)Cc1ccc([123I])cc1` [I--123-S--N--isopropyl-p-iodoamphetamine, I-123-S-N-isopropyl-p-iodoamphetamine] as the molecule, how does the “Brain/Blood Ratio 5 min.” value [2] read?
Its value is 12.80.

And the “Brain/Blood Ratio 60 min.” value [2]?
Its value is 15.40.

What about the tissue uptake at 5 min [2, 7] of the same molecule?
The tissue uptake at 5 min was 0.11 %ID/g.

And the tissue uptake at 1 h [2, 4]?
The tissue uptake at 1 h was 0.13 %ID/g.

What about the tissue uptake at 5 min [2, 8] of the same molecule?
The tissue uptake at 5 min was 1.32 %ID/g.

And the tissue uptake at 1 h [2, 5]?
The tissue uptake at 1 h was 1.93 %ID/g.

And the tissue uptake at 5 min [2, 9]?
The tissue uptake at 5 min was 1.28 %ID/g.

And the tissue uptake at 1 h [2, 6]?
Its tissue uptake at 1 h is 0.85 %ID/g.

Which results are given for `CC1CCCC(C)N1Cc1ccccc1[123I]` (stereo not shown) [I--123-N--o-iodobenzyl-2,6-dimethylpiperidine]?
Brain/Blood Ratio 5 min. [2]: 3.32; Brain/Blood Ratio 60 min. [2]: 1.59; tissue uptake at 5 min [2, 7]: 0.31 %ID/g; tissue uptake at 1 h [2, 4]: 0.21 %ID/g; tissue uptake at 5 min [2, 8]: 1.01 %ID/g; tissue uptake at 1 h [2, 5]: 0.32 %ID/g; tissue uptake at 5 min [2, 9]: 1.14 %ID/g; tissue uptake at 1 h [2, 6]: 0.44 %ID/g

Which “Brain/Blood Ratio 5 min.” value [2] does the source give for `CCN(Cc1ccccc1I)Cc1ccccc1[123I]` [I--123-N,N--di-o-iodobenzylethylamine] here?
Its value is 0.68.

What about the “Brain/Blood Ratio 60 min.” value [2] of the same molecule?
The value was 0.88.

What about the tissue uptake at 5 min [2, 7] of the same molecule?
Its tissue uptake at 5 min is 0.52 %ID/g.

What about the tissue uptake at 1 h [2, 4] of the same molecule?
The tissue uptake at 1 h was 0.28 %ID/g.

And the tissue uptake at 5 min [2, 8]?
The tissue uptake at 5 min was 0.36 %ID/g.

What about the tissue uptake at 1 h [2, 5] of the same molecule?
Its tissue uptake at 1 h is 0.25 %ID/g.

What about the tissue uptake at 5 min [2, 9] of the same molecule?
The tissue uptake at 5 min was 2.11 %ID/g.

And the tissue uptake at 1 h [2, 6]?
The tissue uptake at 1 h was 0.5 %ID/g.

Which “Brain/Blood Ratio 5 min.” value [2] does the source give for `CC(C)N[C@H](C)Cc1ccc([123I])cc1` [I--123-R--N--isopropyl-p-iodoamphetamine, I-123-R-N-isopropyl-p-iodoamphetamine] here?
Its value is 12.60.

And the “Brain/Blood Ratio 60 min.” value [2]?
The value was 20.70.

What about the tissue uptake at 5 min [2, 7] of the same molecule?
Its tissue uptake at 5 min is 0.14 %ID/g.

And the tissue uptake at 1 h [2, 4]?
Its tissue uptake at 1 h is 0.11 %ID/g.

What about the tissue uptake at 5 min [2, 8] of the same molecule?
Its tissue uptake at 5 min is 1.57 %ID/g.

And the tissue uptake at 1 h [2, 5]?
The tissue uptake at 1 h was 2.14 %ID/g.

What about the tissue uptake at 5 min [2, 9] of the same molecule?
Its tissue uptake at 5 min is 1.78 %ID/g.

What about the tissue uptake at 1 h [2, 6] of the same molecule?
Its tissue uptake at 1 h is 0.87 %ID/g.

Which results are given for `[123I]c1ccc(NCc2ccccc2)cc1` [I--123-N--benzyl-p-iodoaniline]?
Brain/Blood Ratio 5 min. [2]: 1.57; Brain/Blood Ratio 60 min. [2]: 0.51; tissue uptake at 5 min [2, 7]: 1 %ID/g; tissue uptake at 1 h [2, 4]: 0.86 %ID/g; tissue uptake at 5 min [2, 8]: 1.57 %ID/g; tissue uptake at 1 h [2, 5]: 0.44 %ID/g; tissue uptake at 5 min [2, 9]: 1.28 %ID/g; tissue uptake at 1 h [2, 6]: 0.59 %ID/g

With `N#CC(N)c1ccccc1[123I]` (stereo not drawn) [I--123-α-amino-o-iodophenylacetonitrile] as the molecule, how does the “Brain/Blood Ratio 5 min.” value [2] read?
Its value is 1.74.

And the tissue uptake at 5 min [2, 7]?
The tissue uptake at 5 min was 0.34 %ID/g.

And the tissue uptake at 5 min [2, 8]?
The tissue uptake at 5 min was 0.58 %ID/g.

What about the tissue uptake at 5 min [2, 9] of the same molecule?
Its tissue uptake at 5 min is 0.86 %ID/g.

Which results are given for `CC(Cc1ccccc1)NCCc1ccccc1[123I]` (racemic) [I--123-N--o-iodo-β-phenethylamphetamine (dl)]?
Brain/Blood Ratio 5 min. [2]: 7.13; Brain/Blood Ratio 60 min. [2]: 7.86; tissue uptake at 5 min [2, 7]: 0.12 %ID/g; tissue uptake at 1 h [2, 4]: 0.11 %ID/g; tissue uptake at 5 min [2, 8]: 0.82 %ID/g; tissue uptake at 1 h [2, 5]: 0.83 %ID/g; tissue uptake at 5 min [2, 9]: 2.02 %ID/g; tissue uptake at 1 h [2, 6]: 0.48 %ID/g

Which results are given for `C[C@H](N)Cc1ccc([123I])cc1` [I--123-S--p-iodoamphetamine, I-123-S-p-iodoamphetamine]?
Brain/Blood Ratio 5 min. [2]: 7.04; Brain/Blood Ratio 60 min. [2]: 11.30; tissue uptake at 5 min [2, 7]: 0.17 %ID/g; tissue uptake at 1 h [2, 4]: 0.17 %ID/g; tissue uptake at 5 min [2, 8]: 1.22 %ID/g; tissue uptake at 1 h [2, 5]: 1.88 %ID/g; tissue uptake at 5 min [2, 9]: 1.52 %ID/g; tissue uptake at 1 h [2, 6]: 0.86 %ID/g

With `[123I]c1ccccc1CNc1ccccc1` [I--123-N--o-iodobenzylaniline] as the molecule, how does the “Brain/Blood Ratio 5 min.” value [2] read?
Its value is 1.70.

And the “Brain/Blood Ratio 60 min.” value [2]?
Its value is 0.41.

And the tissue uptake at 5 min [2, 7]?
The tissue uptake at 5 min was 0.61 %ID/g.

What about the tissue uptake at 1 h [2, 4] of the same molecule?
Its tissue uptake at 1 h is 0.41 %ID/g.

And the tissue uptake at 5 min [2, 8]?
The tissue uptake at 5 min was 1.02 %ID/g.

And the tissue uptake at 1 h [2, 5]?
Its tissue uptake at 1 h is 0.17 %ID/g.

What about the tissue uptake at 5 min [2, 9] of the same molecule?
The tissue uptake at 5 min was 0.83 %ID/g.

What about the tissue uptake at 1 h [2, 6] of the same molecule?
Its tissue uptake at 1 h is 0.31 %ID/g.

With `[123I]c1ccccc1CCN(CCc1ccccc1)CCc1ccccc1` [I--123-N,N--di-β-phenethyl-o-iodo-β-phenethylamine] as the molecule, how does the “Brain/Blood Ratio 5 min.” value [2] read?
Its value is 0.24.

And the “Brain/Blood Ratio 60 min.” value [2]?
The value was 0.17.

What about the tissue uptake at 5 min [2, 7] of the same molecule?
The tissue uptake at 5 min was 0.83 %ID/g.

And the tissue uptake at 1 h [2, 4]?
The tissue uptake at 1 h was 0.65 %ID/g.

What about the tissue uptake at 5 min [2, 8] of the same molecule?
The tissue uptake at 5 min was 0.2 %ID/g.

And the tissue uptake at 1 h [2, 5]?
Its tissue uptake at 1 h is 0.11 %ID/g.

What about the tissue uptake at 5 min [2, 9] of the same molecule?
Its tissue uptake at 5 min is 1.18 %ID/g.

And the tissue uptake at 1 h [2, 6]?
Its tissue uptake at 1 h is 0.62 %ID/g.
